Measurements as given in ChEMBL document CHEMBL5649166, “RIP3 induces apoptosis independent of pronecrotic kinase activity” (Mol Cell, 2014).

Legend:
[1] = target: Serine/threonine-protein kinase B-raf (Homo sapiens) (UniProt P15056); experiment: Inhibition of human BRAF using MEK1 (K97R) as substrate at 1 uM in presence of 32P-ATP by Hotspot assay relative to control; values are per cent of control
[2] = target: Activated CDC42 kinase 1 (Homo sapiens) (UniProt Q07912); experiment: Inhibition of human ACK1 using EAIYAAPFAKKK as substrate at 1 uM in presence of 32P-ATP by Hotspot assay relative to control; values are per cent of control
Chain of Activated CDC42 kinase 1 (Homo sapiens) (Q07912 whole entry, looked up): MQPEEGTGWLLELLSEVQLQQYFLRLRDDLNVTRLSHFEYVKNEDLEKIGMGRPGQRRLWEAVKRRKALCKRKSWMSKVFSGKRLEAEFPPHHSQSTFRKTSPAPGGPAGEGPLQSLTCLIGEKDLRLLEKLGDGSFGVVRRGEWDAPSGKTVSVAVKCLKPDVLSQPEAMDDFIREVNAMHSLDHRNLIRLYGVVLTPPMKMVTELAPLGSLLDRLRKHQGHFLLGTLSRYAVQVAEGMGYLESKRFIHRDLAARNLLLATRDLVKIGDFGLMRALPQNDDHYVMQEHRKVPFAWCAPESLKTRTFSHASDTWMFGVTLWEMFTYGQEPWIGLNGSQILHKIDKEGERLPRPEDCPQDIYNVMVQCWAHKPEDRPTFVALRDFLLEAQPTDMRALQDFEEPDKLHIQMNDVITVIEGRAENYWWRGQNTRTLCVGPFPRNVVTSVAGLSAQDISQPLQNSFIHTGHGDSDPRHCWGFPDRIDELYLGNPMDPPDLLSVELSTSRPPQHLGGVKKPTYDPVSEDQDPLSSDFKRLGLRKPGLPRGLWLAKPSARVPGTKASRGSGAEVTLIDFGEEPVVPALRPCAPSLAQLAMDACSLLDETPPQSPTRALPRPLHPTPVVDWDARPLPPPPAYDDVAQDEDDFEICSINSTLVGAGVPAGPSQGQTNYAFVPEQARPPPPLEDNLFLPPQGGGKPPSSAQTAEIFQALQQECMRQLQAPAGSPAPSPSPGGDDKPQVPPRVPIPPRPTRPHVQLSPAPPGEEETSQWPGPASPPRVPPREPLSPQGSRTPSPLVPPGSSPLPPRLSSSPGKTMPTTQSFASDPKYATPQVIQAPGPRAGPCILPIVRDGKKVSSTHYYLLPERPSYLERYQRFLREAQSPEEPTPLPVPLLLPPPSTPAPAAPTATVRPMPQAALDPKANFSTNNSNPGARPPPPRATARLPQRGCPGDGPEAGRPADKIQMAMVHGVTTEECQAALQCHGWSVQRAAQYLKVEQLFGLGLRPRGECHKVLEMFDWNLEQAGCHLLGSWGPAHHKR

[3] = target: T1, cGMP-dependent protein kinase 2 (Homo sapiens) (UniProt Q13237); experiment: Inhibition of human PKG2/PRKG2 using LRRASLG as substrate at 1 uM in presence of 32P-ATP by Hotspot assay relative to control; values are per cent of control
T1 sequence (whole entry): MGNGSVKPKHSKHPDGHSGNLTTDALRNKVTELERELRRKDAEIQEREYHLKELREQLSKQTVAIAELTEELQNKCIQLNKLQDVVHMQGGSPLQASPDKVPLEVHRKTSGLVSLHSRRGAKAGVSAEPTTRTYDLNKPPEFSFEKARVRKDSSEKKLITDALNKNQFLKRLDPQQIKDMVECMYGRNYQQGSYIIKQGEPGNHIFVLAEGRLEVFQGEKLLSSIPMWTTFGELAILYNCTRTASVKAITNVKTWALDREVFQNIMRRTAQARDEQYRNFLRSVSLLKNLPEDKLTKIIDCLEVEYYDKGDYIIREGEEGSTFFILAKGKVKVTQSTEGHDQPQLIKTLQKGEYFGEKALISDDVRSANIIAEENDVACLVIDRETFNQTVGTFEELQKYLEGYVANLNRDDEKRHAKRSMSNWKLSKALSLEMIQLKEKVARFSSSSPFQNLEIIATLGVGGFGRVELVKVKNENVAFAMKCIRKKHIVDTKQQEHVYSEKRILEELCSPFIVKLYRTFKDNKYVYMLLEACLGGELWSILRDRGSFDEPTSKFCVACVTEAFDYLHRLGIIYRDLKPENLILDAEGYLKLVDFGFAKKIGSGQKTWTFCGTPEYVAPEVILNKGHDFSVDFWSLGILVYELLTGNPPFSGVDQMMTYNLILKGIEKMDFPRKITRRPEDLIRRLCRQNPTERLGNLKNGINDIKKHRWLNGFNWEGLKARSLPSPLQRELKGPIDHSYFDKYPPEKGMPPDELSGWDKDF

[4] = target: Tyrosine-protein kinase HCK (Homo sapiens) (UniProt P08631); experiment: Inhibition of human HCK using KVEKIGEGTYGVVYK as substrate at 1 uM in presence of 32P-ATP by Hotspot assay relative to control; values are per cent of control
Chain of Tyrosine-protein kinase HCK (Homo sapiens) (P08631 2-526 limits assumed): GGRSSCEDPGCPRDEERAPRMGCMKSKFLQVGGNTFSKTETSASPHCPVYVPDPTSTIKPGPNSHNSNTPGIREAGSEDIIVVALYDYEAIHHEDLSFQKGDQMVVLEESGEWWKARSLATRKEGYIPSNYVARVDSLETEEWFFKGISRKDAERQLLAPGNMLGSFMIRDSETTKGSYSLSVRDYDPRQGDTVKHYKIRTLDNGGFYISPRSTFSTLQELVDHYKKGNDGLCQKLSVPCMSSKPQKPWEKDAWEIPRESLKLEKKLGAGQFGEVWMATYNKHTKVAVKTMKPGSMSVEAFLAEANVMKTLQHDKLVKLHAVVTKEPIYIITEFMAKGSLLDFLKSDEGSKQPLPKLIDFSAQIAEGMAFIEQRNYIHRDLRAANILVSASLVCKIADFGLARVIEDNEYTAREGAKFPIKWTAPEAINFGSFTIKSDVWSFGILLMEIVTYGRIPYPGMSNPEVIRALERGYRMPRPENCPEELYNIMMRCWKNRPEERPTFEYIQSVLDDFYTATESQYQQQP

[5] = target: Macrophage colony-stimulating factor 1 receptor (Homo sapiens) (UniProt P07333); experiment: Inhibition of human FMS using poly[Glu:Tyr] (4:1) as substrate at 1 uM in presence of 32P-ATP by Hotspot assay relative to control; values are per cent of control
Chain of Macrophage colony-stimulating factor 1 receptor (Homo sapiens) (P07333 whole entry): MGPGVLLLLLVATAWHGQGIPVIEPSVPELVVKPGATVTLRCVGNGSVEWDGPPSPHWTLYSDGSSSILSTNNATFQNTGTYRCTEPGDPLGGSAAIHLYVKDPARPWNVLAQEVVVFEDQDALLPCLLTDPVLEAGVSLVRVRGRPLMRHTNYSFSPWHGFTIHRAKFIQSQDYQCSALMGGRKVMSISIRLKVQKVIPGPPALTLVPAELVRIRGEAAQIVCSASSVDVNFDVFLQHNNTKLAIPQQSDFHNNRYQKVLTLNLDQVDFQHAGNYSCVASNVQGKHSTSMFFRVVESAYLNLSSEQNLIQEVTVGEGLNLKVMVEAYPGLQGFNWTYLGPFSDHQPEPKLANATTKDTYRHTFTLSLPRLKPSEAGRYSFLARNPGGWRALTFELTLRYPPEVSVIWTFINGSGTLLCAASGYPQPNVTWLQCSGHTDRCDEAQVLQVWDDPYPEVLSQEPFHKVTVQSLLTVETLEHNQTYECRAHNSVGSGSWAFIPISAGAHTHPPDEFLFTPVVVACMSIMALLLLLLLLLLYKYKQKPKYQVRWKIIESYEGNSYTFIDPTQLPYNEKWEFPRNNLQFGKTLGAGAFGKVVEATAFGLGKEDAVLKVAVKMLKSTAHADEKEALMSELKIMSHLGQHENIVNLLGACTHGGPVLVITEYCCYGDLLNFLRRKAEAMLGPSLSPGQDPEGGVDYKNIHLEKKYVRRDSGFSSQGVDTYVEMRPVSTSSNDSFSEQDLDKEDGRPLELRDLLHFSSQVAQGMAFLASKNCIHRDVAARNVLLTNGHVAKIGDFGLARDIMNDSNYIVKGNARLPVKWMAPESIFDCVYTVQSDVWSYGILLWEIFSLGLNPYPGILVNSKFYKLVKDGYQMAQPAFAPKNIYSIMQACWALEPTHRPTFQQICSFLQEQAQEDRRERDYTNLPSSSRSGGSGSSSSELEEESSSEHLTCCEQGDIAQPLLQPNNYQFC

[6] = target: Serine/threonine-protein kinase Nek4 (Homo sapiens) (UniProt P51957); experiment: Inhibition of human NEK4 using myelin basic protein as substrate at 1 uM in presence of 32P-ATP by Hotspot assay relative to control; values are per cent of control
Chain of Serine/threonine-protein kinase Nek4 (Homo sapiens) (P51957 whole entry, looked up): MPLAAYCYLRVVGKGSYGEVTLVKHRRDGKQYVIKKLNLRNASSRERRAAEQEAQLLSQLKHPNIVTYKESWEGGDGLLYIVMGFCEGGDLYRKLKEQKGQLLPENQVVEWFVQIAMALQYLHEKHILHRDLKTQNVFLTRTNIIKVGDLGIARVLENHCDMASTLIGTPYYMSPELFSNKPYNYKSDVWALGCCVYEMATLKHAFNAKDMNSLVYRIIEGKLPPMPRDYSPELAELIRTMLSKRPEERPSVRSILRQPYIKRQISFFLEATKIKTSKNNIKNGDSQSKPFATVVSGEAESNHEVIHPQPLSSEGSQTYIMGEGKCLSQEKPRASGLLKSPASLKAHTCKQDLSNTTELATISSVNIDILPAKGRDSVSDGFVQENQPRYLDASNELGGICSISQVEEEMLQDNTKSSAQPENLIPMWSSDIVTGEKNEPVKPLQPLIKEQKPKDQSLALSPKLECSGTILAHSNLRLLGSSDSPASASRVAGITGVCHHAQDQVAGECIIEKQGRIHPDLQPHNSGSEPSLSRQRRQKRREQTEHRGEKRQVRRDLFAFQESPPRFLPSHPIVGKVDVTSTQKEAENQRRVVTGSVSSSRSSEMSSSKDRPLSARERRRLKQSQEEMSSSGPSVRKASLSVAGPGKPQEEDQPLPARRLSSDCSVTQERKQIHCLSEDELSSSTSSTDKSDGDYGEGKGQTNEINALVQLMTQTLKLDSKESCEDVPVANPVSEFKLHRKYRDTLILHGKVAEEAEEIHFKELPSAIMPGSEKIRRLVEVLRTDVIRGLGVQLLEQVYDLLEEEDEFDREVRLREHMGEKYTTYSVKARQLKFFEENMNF

[7] = target: T2, Serine/threonine-protein kinase 17A (Homo sapiens) (UniProt Q9UEE5); experiment: Inhibition of human DRAK1/STK17A using KKLNRTLSFAEPG as substrate at 1 uM in presence of 32P-ATP by Hotspot assay relative to control; values are per cent of control
T2 sequence (whole entry): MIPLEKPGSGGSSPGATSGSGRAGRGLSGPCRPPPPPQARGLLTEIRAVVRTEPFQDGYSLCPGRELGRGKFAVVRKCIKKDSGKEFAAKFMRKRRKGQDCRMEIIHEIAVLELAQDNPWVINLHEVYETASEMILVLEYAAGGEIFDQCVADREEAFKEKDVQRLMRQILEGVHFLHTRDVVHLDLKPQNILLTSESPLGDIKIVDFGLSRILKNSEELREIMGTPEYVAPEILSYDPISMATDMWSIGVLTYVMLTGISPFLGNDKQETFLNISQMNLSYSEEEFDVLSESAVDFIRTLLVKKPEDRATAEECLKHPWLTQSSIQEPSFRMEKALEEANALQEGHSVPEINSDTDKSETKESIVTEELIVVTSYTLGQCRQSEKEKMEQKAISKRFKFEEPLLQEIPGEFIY

[8] = target: Tyrosine-protein kinase Yes (Homo sapiens) (UniProt P07947); experiment: Inhibition of human YES/YES1 using poly[Glu:Tyr] (4:1) as substrate at 1 uM in presence of 32P-ATP by Hotspot assay relative to control; values are per cent of control
Chain of Tyrosine-protein kinase Yes (Homo sapiens) (P07947 2-543 limits assumed): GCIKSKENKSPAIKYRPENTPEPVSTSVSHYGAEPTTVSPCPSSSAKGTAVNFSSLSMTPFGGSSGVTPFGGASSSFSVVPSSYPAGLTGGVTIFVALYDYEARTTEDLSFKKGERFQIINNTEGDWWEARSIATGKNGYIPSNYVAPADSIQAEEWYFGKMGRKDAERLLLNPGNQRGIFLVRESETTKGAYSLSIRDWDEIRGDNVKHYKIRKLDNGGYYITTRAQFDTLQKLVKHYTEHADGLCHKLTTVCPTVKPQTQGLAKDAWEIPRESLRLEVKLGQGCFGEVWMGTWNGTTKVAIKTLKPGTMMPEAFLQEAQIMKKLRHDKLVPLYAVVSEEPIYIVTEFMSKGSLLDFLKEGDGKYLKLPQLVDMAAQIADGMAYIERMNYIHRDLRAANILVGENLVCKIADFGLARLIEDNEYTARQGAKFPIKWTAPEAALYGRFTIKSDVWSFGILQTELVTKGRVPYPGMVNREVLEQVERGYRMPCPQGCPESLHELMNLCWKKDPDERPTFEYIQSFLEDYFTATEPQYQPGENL

Chain of Serine/threonine-protein kinase B-raf (Homo sapiens) (P15056 whole entry): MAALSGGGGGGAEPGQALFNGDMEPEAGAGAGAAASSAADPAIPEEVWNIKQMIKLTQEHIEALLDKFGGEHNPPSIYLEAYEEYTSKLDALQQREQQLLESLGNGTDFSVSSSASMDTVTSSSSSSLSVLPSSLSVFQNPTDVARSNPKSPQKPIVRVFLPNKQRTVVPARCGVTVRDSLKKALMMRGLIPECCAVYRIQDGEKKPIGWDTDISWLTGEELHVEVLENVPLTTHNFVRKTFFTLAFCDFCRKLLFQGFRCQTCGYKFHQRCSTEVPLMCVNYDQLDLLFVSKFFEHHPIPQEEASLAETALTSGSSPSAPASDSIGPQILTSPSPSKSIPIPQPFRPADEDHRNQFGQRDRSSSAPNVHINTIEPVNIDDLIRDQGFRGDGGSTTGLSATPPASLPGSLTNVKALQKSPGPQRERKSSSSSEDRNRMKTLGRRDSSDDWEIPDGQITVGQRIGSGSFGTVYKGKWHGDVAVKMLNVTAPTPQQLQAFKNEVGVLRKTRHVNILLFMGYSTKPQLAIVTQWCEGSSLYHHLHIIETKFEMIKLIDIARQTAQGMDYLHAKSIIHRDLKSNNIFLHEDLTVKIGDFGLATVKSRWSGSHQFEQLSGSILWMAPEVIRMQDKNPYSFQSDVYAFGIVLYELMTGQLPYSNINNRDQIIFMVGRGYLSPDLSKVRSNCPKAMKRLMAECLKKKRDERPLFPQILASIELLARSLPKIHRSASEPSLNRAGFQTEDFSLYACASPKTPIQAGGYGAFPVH

Structure (SMILES): Cc1cc(-c2cnc(N)c3c(-c4ccc5scnc5c4)csc23)n(C)n1
- residual activity [1]: 79.6%
- residual activity [2]: 5.38%
- residual activity [3]: 70.1%
- residual activity [4]: 41%
- residual activity [5]: 19.4%
- residual activity [6]: 97.9%
- residual activity [7]: 96.8%
- residual activity [8]: 17%

Structure (SMILES): CC(C)S(=O)(=O)c1ccc2nccc(Nc3ccc4scnc4c3)c2c1
- residual activity [1]: 90.2%
- residual activity [2]: 47.8%
- residual activity [3]: 94.6%
- residual activity [4]: 23.1%
- residual activity [5]: 108%
- residual activity [6]: 95.6%
- residual activity [7]: 99%
- residual activity [8]: 20.1%

Structure (SMILES): CNC(=O)c1ccc2c(c1)ncn2-c1ccc(CC(=O)OC(C)(C)C)cc1
- residual activity [1]: 96.1%
- residual activity [2]: 93.4%
- residual activity [3]: 96.7%
- residual activity [4]: 76.1%
- residual activity [5]: 91.8%
- residual activity [6]: 96.3%
- residual activity [7]: 98.9%
- residual activity [8]: 39.6%
